Assay results as given in publication PMC12648101, “Targeting SARS-CoV-2 main protease for the discovery of a broad-spectrum COVID-19 inhibitor by intensive multi-tiered validation” (Acta Pharmaceutica Sinica. B, 2025).
Where two headings read alike, the source gives them in different places.

System: SARS-CoV-2 strains and variants (wild-type, Delta, Omicron BA.1.1, BA.2.3, BA.4, BA.5)
Assay: Antiviral CPE assay in Vero E6 cells, summary over all tested strains
Type: cell-based
Conditions: Severe acute respiratory syndrome coronavirus 2, Vero C1008

## O=C(O)C[C@@H]1C(=O)O[C@H]2[C@@H]3OC(=O)c4cc(O)c(O)c(O)c4-c4c(cc(O)c(O)c4O)C(=O)OC[C@H]2O[C@@H](OC(=O)c2cc(O)c(O)c(O)c2)[C@@H]3OC(=O)c2cc(O)c(O)c3c2[C@H]1[C@H](O)C(=O)O3 [CHLA, chebulagic acid]
read-out: EC50 values against a range of SARS-CoV-2 variants
  EC50: < 2 µM

## CC(C)(C)[C@H](NC(=O)C(F)(F)F)C(=O)N1C[C@H]2[C@@H]([C@H]1C(=O)N[C@H](C#N)C[C@@H]1CCNC1=O)C2(C)C [PF-07321332, reference compound]
read-out: EC50 for the tested SARS-CoV-2 strains and variants
  EC50: ~0.05 µM
